This passage reports GI50 and TGI results from PubChem BioAssay (NCI).

Holding throughout (assay): NCI anticancer screen, dose series, 48 h
For experiment [1], the system named is SW-620 colon.
Experiment [2] has as its system CCRF-CEM leukemia.
Experiment [3] deals with NCI/ADR-RES ovarian.
For experiment [4], the system named is UACC-62 melanoma.
Experiment [5] deals with SN12C renal.
Experiment [6] has as its system RPMI-8226 leukemia.
The subject of experiment [7] is PC-3 prostate.
Experiment [8] deals with SK-OV-3 ovarian.
The test system of experiment [9] is SF-295 CNS.
In experiment [10] the test system is NCI-H522 lung.

Values joined by “and” are separate entries in the source; they are usually repeats but may differ in a detail not shown here. Equal values may be shown once.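 Assay format: 96-well plates, 48-hour exposure. GI50 is the concentration that inhibits growth by half. TGI is the concentration that stops growth completely.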

Take `Cc1ccc(C2SCc3nc4ccc(C(=O)c5ccccc5)cc4n32)cc1` (stereo not given): the GI50 was 3.69 µM in [1]; 23.8 µM in experiment [2]; 2.37 µM in experiment [3]; 5.29 µM in experiment [4]; 11.4 µM in experiment [5]; 10.3 µM in [6]. Also, the GI50 in [7] is 10.5 µM; in experiment [8] it was 20.5 µM; in experiment [9], 8.21 µM; in [10], 7.93 µM. Also, the TGI is over 39.1 µM in [1]; over 100 µM in experiment [2]; 8.38 µM in [3]; 19.3 µM in [4]; 38.3 µM in [5]; over 95 µM in [6]. Besides, the TGI is over 67.5 µM in [7], 47.8 µM in [8], 33 µM in [9] and 38.2 µM in experiment [10].

`CCCCCC(=O)OCC(=O)O[C@@H]1C[C@]2(C(C)C)O[C@@]1(C)[C@@H]1CC[C@@H](C)[C@H]1[C@@H]2OC(=O)/C=C/c1ccccc1`: the GI50 is over 40.7 µM in [1]; over 37.6 µM in experiment [2]; 0.291 µM in experiment [3]; over 53.8 µM in [4]; 2.9 µM in experiment [5]; 43.3 µM in experiment [6]. The GI50 in experiment [7] is 8.58 µM; in experiment [8] it was over 85.2 µM; in experiment [9], over 68.2 µM; in experiment [10], 38.2 µM. Besides, the TGI was over 67.6 µM in [1]; over 100 µM in experiment [2]; over 70.6 µM in experiment [3]; over 100 µM in [4]; over 78.7 µM in experiment [5]; over 100 µM in experiment [6]. Moreover, the TGI in experiment [7] is over 100 µM; in experiment [8] it was over 100 µM; in [9], over 100 µM; in experiment [10] it was over 76.5 µM.

Regarding `C#CCOc1ccc2ncnc(Nc3ccc(NC(=O)CCl)cc3)c2c1`, the GI50 in experiment [1] is 3.48 µM; in experiment [2], 2.38 µM; in [3] it was 3.76 µM; in [4] it was 8.97 µM; in experiment [5], 6.4 µM; in experiment [6], 3.88 µM. Also, the GI50 is 8.1 µM in experiment [7], 12.5 µM in experiment [8], 10.1 µM in experiment [9] and 2 µM in experiment [10]. In addition, the TGI was found to be 13.3 µM in [1]; 12.2 µM in experiment [2]; 36.4 µM in experiment [3]; 27.4 µM in experiment [4]; 36.9 µM in experiment [5]; 18.1 µM in experiment [6]. The TGI is 27.6 µM in experiment [7], 38.6 µM in experiment [8], 24.5 µM in experiment [9] and 4.27 µM in [10].

For the molecule `CCCCN(CCCC)CC(C)(C)C(O)c1ccc(OC)c2ccccc12` (stereo not given), the GI50 was 2.54 µM in [1]; 5.13 µM in [2]; 6.13 µM in [3]; 4.87 µM in [4]; 4.54 µM in [5]; 2.5 µM in experiment [6]. Further, the GI50 is 2.88 µM in experiment [7], 5.29 µM in experiment [8], 2.28 µM in [9] and 4.18 µM in experiment [10]. Moreover, the TGI in experiment [1] stood at 14.5 µM; in [2] it was 26.7 µM; in experiment [3], 23.8 µM; in [4] it was 21.3 µM; in experiment [5] it was 20.6 µM; in experiment [6], 5.93 µM. For the same molecule, the TGI in [7] stood at 13.7 µM; in experiment [8] it was 28.7 µM; in experiment [9] it was 17.8 µM; in experiment [10], 18.5 µM.

Take `CC1CCC2C(C)C3C(CC4C5CC=C6CC(OC7OC(CO)C(O)C(OC8OC(CO)C(O)C(O)C8O)C7OC7OC(C)C(O)C(O)C7O)CCC6(C)C5CCC43C)N2C1` (stereo not given): the GI50 in [1], in [2], in experiment [3], in experiment [4], in [5] and in experiment [6] was over 2.5 mg/L in each case. The GI50 in experiment [7], in experiment [8], in experiment [9] and in experiment [10] was over 2.5 mg/L in each case. The TGI was 31.6 µM and > 2.5 µg/mL in experiment [1]; 28.2 µM and > 2.5 µg/mL in experiment [2]; 34.8 µM and > 2.5 µg/mL in experiment [3]; 27.7 µM and > 2.5 µg/mL in experiment [4]; 24.3 µM and > 2.5 µg/mL in experiment [5]; 45.9 µM and > 2.5 µg/mL in [6]. Moreover, the TGI in experiment [7] is 28.5 µM and > 2.5 µg/mL; in experiment [8], 29.6 µM and > 2.5 µg/mL; in experiment [9] it was 22.7 µM and > 2.5 µg/mL; in experiment [10] it was 35.2 µM and > 2.5 µg/mL.

For the molecule `COc1ccc(C2C(c3ccccc3)C(=O)N2c2cc(OC)c(OC)c(OC)c2)cc1I` (stereo not given), the GI50 in [1] is 0.423 µM; in experiment [2], 0.365 µM; in experiment [3], 0.319 µM; in [4], 0.458 µM; in experiment [5], 0.523 µM; in [6] it was 0.422 µM. Also, the GI50 was 0.488 µM in [7], 0.395 µM in [8], 0.337 µM in experiment [9] and 0.276 µM in [10]. Moreover, the TGI in experiment [1], in experiment [2], in experiment [3], in [4], in experiment [5] and in experiment [6] was over 100 µM each time. Further, the TGI was over 100 µM in experiment [7], over 100 µM in [8], over 100 µM in [9] and 0.887 µM in experiment [10].

Consider `O=C(O)c1ccc(-c2ccc(C(=O)O)cc2I)c(I)c1`, for which the GI50 in experiment [1], in [2], in [3], in experiment [4], in experiment [5] and in [6] was over 100 µM throughout. Further, the GI50 in experiment [7], in [8], in experiment [9] and in experiment [10] was over 100 µM each time. The TGI in experiment [1], in experiment [2], in experiment [3], in experiment [4], in experiment [5] and in experiment [6] was over 100 µM each time. Further, the TGI in [7], in experiment [8], in [9] and in [10] was over 100 µM each time.
